Results taken from patent US6346260B1, “Microbicidal active ingredients” (Ciba Specialty Chemicals Corporation, priority 1999, dated 2002).

Tests used:
Assay type in all cases: cell-based
[1] = tested on: Penicillium expansum ATCC 36200; assay: MIC in microtitre plates, Penicillium expansum; details: ATCC36200, 120 h, Table 1, 5 days at 28° C., ≦20% growth
Procedure: (§1) Determination of Antimicrobial Activity in Accordance with the Microtitre Plate Method Determination of the Minimum Inhibitory Concentration (MIC value) in Microtitre Plates Mycological slant agar for the preculture of moulds. Penicillium expansum ATCC 36200 The test substances are predissolved in dimethyl sulfoxide (DMSO) and tested in a dilution series of 1:2. Bacteria and yeast are cultured overnight in CASO bouillon, the mould on mycological slant agar and rinsed off with 10 ml of 0.85% sodium chloride solution (+0.1% TritonX-100). All test organisms are adjusted to an organism count of 1-5*10^6 CFU/ml with 0.85% sodium chloride solution. The test substances are prepipetted into microtitre plates in an amount of 8 μl per well. Previously diluted test organism suspensions are diluted 1:100 in CASO bouillon (bacteria and yeast) and Sabouraud 2% glucose bouillon (mould) and added to the test substances in an amount of 192 μl per well. The test batches are incubated for 48 hours at 37° C. (bacteria and yeast) or for 5 days at 28° C. (mould). After incubation, the growth is determined by reference to the turbidity of the test batches (optical density) at 620 nm in a microplate reader. […]

[2] = tested on: Pseudomonas aeruginosa CIP A-22; assay: MIC in microtitre plates, Pseudomonas aeruginosa; details: Pseudomonas aeruginosa, CIPA22; Table 1; CIP A-22; 48 hours at 37° C.; ≦20% growth; read-out: MIC Pseudomonas aeruginosa
Procedure: Determination of Antimicrobial Activity in Accordance with the Microtitre Plate Method Determination of the Minimum Inhibitory Concentration (MIC value) in Microtitre Plates casein-soybean flour-peptone bouillon for the preparation of the precultures of the test bacteria and yeast. Pseudomonas aeruginosa CIP A-22 The test substances are predissolved in dimethyl sulfoxide (DMSO) and tested in a dilution series of 1:2. Bacteria and yeast are cultured overnight in CASO bouillon, the mould on mycological slant agar and rinsed off with 10 ml of 0.85% sodium chloride solution (+0.1% TritonX-100). All test organisms are adjusted to an organism count of 1-5*10^6 CFU/ml with 0.85% sodium chloride solution. The test substances are prepipetted into microtitre plates in an amount of 8 μl per well. Previously diluted test organism suspensions are diluted 1:100 in CASO bouillon (bacteria and yeast) and Sabouraud 2% glucose bouillon (mould) and added to the test substances in an amount of 192 μl per well. The test batches are incubated for 48 hours at 37° C. (bacteria and yeast) or for 5 days at 28° C. (mould). After incubation, the growth is determined by reference to the turbidity of the test batches (optical density) at 620 nm in a microplate reader. The minimum inhibitory concentration (MIC value) is the concentration of substance at which (compared with the growth of the control) an appreciable inhibition of the growth (≦20% growth) of the test organisms is ascertained. One microtitre plate is used for each test organism and substance concentration. All substances are tested in duplicate.

[3] = tested on: Rhizopus stolonifer DSM 63011; assay: MIC in microtitre plates, Rhizopus stolonifer; details: DSM63011, 120 h, Table 1, 5 days at 28° C., ≦20% growth
Procedure: as §1, with “Rhizopus stolonifer DSM 63011” for “Penicillium expansum ATCC 36200”

[4] = tested on: Staphylococcus aureus ATCC 9144; assay: MIC in microtitre plates, Staphylococcus aureus; details: ATCC9144, Table 1, 48 hours at 37° C., ≦20% growth
Procedure: as §1, with “casein-soybean flour-peptone bouillon” for “Mycological slant agar”, “preparation” for “preculture”, “the precultures of the test bacteria and yeast. Staphylococcus aureus” for “moulds. Penicillium expansum”, “9144” for “36200”

## O=C(CC(=O)c1ccccc1O)c1ccco1 [Compound of formula (101)]
[1]
  MIC: 100 µg/mL
[2]
  MIC: > 1000 µg/mL
[3]
  MIC: 50 µg/mL
[4]
  MIC: 100 to 500 µg/mL
